# In PMC7694037, “Quinolizidine-Derived Lucanthone and Amitriptyline Analogues Endowed with Potent Antileishmanial Activity” (Pharmaceuticals, 2020):
# Like-named read-outs stand apart in the source and are kept apart here.
# Legend:
# [1] = tested on: Leishmania tropica promastigotes; test: Antileishmanial activity against L. tropica promastigotes (MTT assay); settings: for IC50: 72 h, IC50 ± SD; for Ratio IC50 Miltef./IC50 Compd. (L. tropica): ratio between IC50 of miltefosine and that of each compound, L. tropica promastigotes
# Procedure: (§5) Promastigote stage of L. infantum strain MHOM/TN/80/IPT1 (kindly provided by Dr. M. Gramiccia, ISS, Roma) and L. tropica (MHOM/SY/2012/ISS3130) were cultured in RPMI 1640 medium (EuroClone) supplemented with 10% heat-inactivated fetal calf serum (EuroClone, Milan Italy), 20 mM Hepes and 2 mM L-glutamine at 24 °C. […] Compounds were dissolved in DMSO and then diluted with medium to achieve the required concentrations. Drugs were placed in 96 wells round-bottom microplates and seven serial dilutions made. Miltefosine was used as reference anti-Leishmania drug. Parasites were diluted in complete medium to 5 × 10^6 parasites/mL and 100 μL of the suspension was seeded into the plates, incubated at 24 °C for 72 h and then 20 µL of MTT solution (5 mg/mL) was added into each well for 3 h. The plates were then centrifuged, the supernatants were discarded and the resulting pellets were dissolved in 100 µL of lysing buffer consisting of 20% (w/v) of a solution of SDS (Sigma), 40% DMF (Merck, Milan Italy) in H2O. The absorbance was measured spectrophotometrically at a test wavelength of 550 nm and a reference wavelength of 650 nm.
# [2] = tested on: L. infantum promastigotes; test: Antileishmanial activity against L. infantum promastigotes (MTT assay); settings: for IC50: Leishmania infantum, 72 h, read-out: IC50 L. infantum; for Ratio IC50 Miltef./IC50 Compd. (L. infantum): ratio between IC50 of miltefosine and that of each compound, L. infantum promastigotes
# Procedure: as §5
# [3] = Cytotoxicity against Vero-76 cells (crystal violet staining); format: cell-based, Cercopithecus Aethiops; settings: Cercopithecus aethiops (African green monkey)
# Procedure: (§1) The cytotoxicity of lucanthone was also tested for comparison. […] The relevant selectivity index (SI)—a parameter that quantifies the preferential antileishmanial activity of a compound in relation to mammalian cell toxicity (CC50/IC50)—is tabulated in Table 2. […] The replacement of the 4-methyl substituent with an amino group in compound 14, while preserving good antileishmanial activity, led to a further substantial decrease of cytotoxicity, with a resultantly safer profile (SI = 16.2 and 16.9 for the two Leishmania species).
# (§2) Vero-76 cells (ATCC CRL 1587 Cercopithecus Aethiops) were seeded at an initial density of 4 × 10^5 cells/mL in 24-well plates, in culture medium (Dulbecco’s modified eagle’s medium (D-MEM) with L-glutamine, supplemented with fetal bovine serum (FBS), 0.025 g/L kanamycin). Cell cultures were then incubated at 37 °C in a humidified, 5% CO2 atmosphere in the absence or presence of serial dilutions of test compounds. Cell viability was determined after 48–96 h at 37 °C by the Crystal violet staining method. The results are expressed as CC50, which is the concentration of compound necessary to inhibit cell growth by 50%. Each CC50 value is the mean and standard deviation of at least three separate experiments performed in duplicate.
# [4] = tested on: Vero-76 cells; test: as above; format: cell-based, Cercopithecus Aethiops; settings: for S.I. L. infantum: CC50 Vero-76 / IC50 L. infantum promastigotes; for S.I. L. tropica: CC50 Vero-76 / IC50 L. tropica promastigotes; for selectivity index (SI), range over both Leishmania species: Vero-76 cells vs L. tropica and L. infantum promastigotes
# Procedure: as §1, §2
# [5] = tested on: intramacrophagic amastigotes of L. infantum; test: Intracellular amastigote susceptibility assay in PMA-differentiated THP-1 macrophages; format: cell-based; settings: Leishmania infantum; intramacrophagic amastigotes in THP-1 macrophages, 72 h; mean ± SD; read-out: L. infantum Amastigotes IC50
# Procedure: Finally, for a better idea of their real value as antileishmanial agents, compounds 14 and 17, displaying the most promising activity against promastigote stage and the highest SI values, together with lucanthone and the corresponding quinolizidine analog 1, were tested against the intramacrophagic amastigote stage of L. infantum.
# THP-1 cells (human acute monocytic leukemia) were maintained in RPMI supplemented with 10% FBS (EuroClone), 50 µM 2-mercaptoethanol, 20 mM Hepes and 2 mM glutamine, at 37 °C in 5% CO2. For Leishmania infections, THP-1 cells were plated at 5 × 10^5 cells/mL in 16-chamber Lab-Tek culture slides (Nunc, Milan, Italy) and treated with 0.1 µM phorbol myristate acetate (PMA, Sigma) for 48 h to achieve differentiation into macrophages. Cells were washed and infected with metacyclic L. infantum promastigotes at a macrophage/promastigote ratio of 1/10 for 24 h. Cell monolayers were then washed and incubated in the presence of test compounds for 72 h. Slides were fixed with methanol and stained with Giemsa. The percentages of infected macrophages among treated and non-treated cells were determined by light microscopy.
# [6] = Cytotoxicity against PMA-differentiated THP-1 cells (MTT); format: cell-based, human; settings: human
# Procedure: (§3) The cytotoxic concentration (CC50) against THP-1 differentiated into macrophages (Table 3), used for testing the activity against the amastigote stage, is also reported.
# (§4) THP-1 cells were plated at 5 × 10^5 cells/mL in 96 wells flat bottom microplates and treated with 0.1 µM PMA for 48 h to achieve differentiation into macrophages. Cells were then treated with serial dilutions of test compounds and cell proliferation evaluated using the MTT assay described for promastigotes.
# [7] = tested on: PMA-differentiated THP-1; test: as above; format: cell-based, human; settings: CC50 THP-1 / IC50 L. infantum amastigotes
# Procedure: as §3, §4
# [8] = mouse, in vivo, 260 mg/kg; cited from earlier work
# [9] = tested on: Mycobacterium tuberculosis H37Ra; set-up: method as in PMID 3653383; settings: cited from earlier work
# [10] = Leishmania tropica, read-out: IC50 L. tropica, promastigotes, MTT, 72 h
SMILES,"IC50 [1, 10] [µM]",Ratio IC50 Miltef./IC50 Compd. (L. tropica) [1],IC50 [2] [µM],Ratio IC50 Miltef./IC50 Compd. (L. infantum) [2],CC50 [3] [µM],S.I. L. infantum [4],S.I. L. tropica [4],"selectivity index (SI), range over both Leishmania species [4]",IC50 [5] [µM],CC50 [6] [µM],SI (THP-1) [7],mortality [8],MIC Mycobacterium tuberculosis H37Ra [9] [µM],"IC50 ([1]; read-out: IC50 L. tropica, promastigotes, MTT) [µM]",melting point [°C]
COc1ccc2sc3c([N+](=O)[O-])ccc(NCC4CCCN5CCCCC45)c3c(=O)c2c1 (centres unmarked) [Compound 11],6.35 ± 1.46,6.8,13 ± 0.97,2.4,,,,,,,,,,,
COc1ccc2sc3c([N+](=O)[O-])ccc(NCCCC4CCCN5CCCCC45)c3c(=O)c2c1 (centres unmarked) [Compound 12],7.39 ± 2.31,5.85,7.89 ± 2.41,3.95,,,,,,,,,,,
Nc1ccc(NCC2CCCN3CCCCC23)c2c(=O)c3ccccc3sc12 (centres unmarked) [Compound 13],2.87 ± 0.43,15.1,5.23 ± 1.83,6.0,,,,,,,,,,,
"Nc1ccc(NCCC2CCCN3CCCCC23)c2c(=O)c3ccccc3sc12 (centres unmarked) [Compound 14, 4-amino-1-(quinolizidinylethyl)aminothioxanthen-9-one]",3.8 ± 1.82,11.4,3.63 ± 0.78,8.6,61.4 ± 2.6,16.9,16.2,16–24,2.13 ± 1.35,21.7 ± 8.83,10.2,no mortality,,,
Nc1ccc(NCCCC2CCCN3CCCCC23)c2c(=O)c3ccccc3sc12 (centres unmarked) [Compound 15],3.72 ± 1.66,11.6,4.22 ± 1.95,7.4,,,,,,,,,,,
Cc1ccc(NCC2CCCN3CCCCC23)c2c(=O)c3ccccc3oc12 (centres unmarked) [Compound 16],6.56 ± 3.08,6.6,8.23 ± 1.51,3.8,,,,,,,,,,,
"C(=C1c2ccccc2-c2ccccc21)[C@@H]1CCCN2CCCC[C@H]12 [Compound 17, 9-(quinolizidinylmethylidene)fluorene]",3.5,12.4,4.35 ± 0.37,7.2,83.4 ± 3,19.2,23.9,16–24,2.7 ± 0.68,53.9 ± 3.98,20.0,,0.49,3.49 ± 1.02,
C[N+]12CCCC[C@@H]1[C@H](C=C1c3ccccc3-c3ccccc31)CCC2 (some centres unmarked) [Compound 19],10.5 ± 2.69,4.1,16.4 ± 0.59,1.90,82.7 ± 4.7,5.0,7.9,,,,,,83.9,,
"C[N+]12CCCC[C@@H]1[C@H](C=C1c3ccccc3CCc3ccccc31)CCC2.[I-] (stereo partly drawn) [Compound 20, (1S,9aR)-1-[(10,11-dihydro-5H-dibenzo[a,d][7]annulen-5-ylidene)methyl]-5-methyl-decahydroquinolizin-5-ium iodide]",7.21 ± 3.52,6.0,8.71 ± 0.68,3.58,89.9 ± 3.7,10.3,12.5,,,,,,,,283 to 286
"CCCCCCCCCCCCCCCCOP(=O)([O-])OCC[N+](C)(C)C [Miltefosine, reference compound]",43.3 ± 11.4,1.0,,1.0,,,,,,,,,,,
"NNC(=O)c1ccncc1 [isoniazide, reference compound]",,,,,,,,,,,,,0.14 to 0.28,,
